From publication PMC9516332 (Frontiers in Oncology, 2022)
Like-named read-outs stand apart in the source and are kept apart here.

Test system: 134 cancer cell lines
Assay: Cell viability assay (ATPlite, 72 hours), IC50 on cancer cell line panel

CCc1nc(C(N)=O)c(Nc2ccc(N3CCC(N4CCN(C)CC4)CC3)c(OC)c2)nc1NC1CCOCC1 [gilteritinib] gave an IC50 (Homo sapiens, MKN-45, read-out: IC50 in cell proliferation assay, MKN45 cell line (MET amplification)) of 1480 nM, an IC50 (Homo sapiens, MOLM-13, read-out: IC50 in cell proliferation assay, MOLM-13 cell line (FLT3 ITD)) of 4 nM and an IC50 (Homo sapiens, MOLT-4, read-out: IC50 in cell proliferation assay, MOLT-4 cell line) of 1000 nM. It also gave an IC50 (Homo sapiens, MV4-11, read-out: IC50 in cell proliferation assay, MV4-11 cell line (FLT3 ITD)) of 0.832 nM, an IC50 (Homo sapiens, MeWo, read-out: IC50 in cell proliferation assay, MeWo cell line) of 336 nM and an IC50 (Homo sapiens, NCCIT, read-out: IC50 in cell proliferation assay, NCC-IT cell line) of 307 nM. For the same molecule, the IC50 (Homo sapiens, NCI-H82, read-out: IC50 in cell proliferation assay, cell line NCI-H82) was 300 nM, the IC50 (Homo sapiens, NCI-H460, read-out: IC50 in cell proliferation assay, NCI-H460 cell line) was 499 nM and the IC50 (Homo sapiens, NCI-H661, read-out: IC50 in cell proliferation assay, NCI-H661 cell line) was 233 nM. The IC50 (Homo sapiens, NCI-H716, read-out: IC50 in cell proliferation assay, cell line NCI-H716 (FGFR2-COL14A1)) was 584 nM, the IC50 (Homo sapiens, NCI-H1650, read-out: IC50 in cell proliferation assay, NCI-H1650 cell line (EGFR exon19del)) was 471 nM and the IC50 (Homo sapiens, NCI-H1975, read-out: IC50 in cell proliferation assay, NCI-H1975 cell line (EGFR p.L858R + p.T790M)) was 495 nM. The IC50 (Homo sapiens, NCI-H2228, read-out: IC50 in cell proliferation assay, NCI-H2228 cell line (EML4-ALK)) was 1.84 nM, the IC50 (Homo sapiens, OVCAR-3, read-out: IC50 in cell proliferation assay, cell line OVCAR-3) was 591 nM and the IC50 (Homo sapiens, PFSK-1, read-out: IC50 in cell proliferation assay, cell line PFSK-1) was 319 nM. For the same molecule, the IC50 (Homo sapiens, RL95-2, read-out: IC50 in cell proliferation assay, cell line RL95-2 (EGFR p.A289V)) was 177 nM, the IC50 (Homo sapiens, RPMI-7951, read-out: IC50 in cell proliferation assay, cell line RPMI-7951 (BRAF p.V600E)) was 645 nM and the IC50 (Homo sapiens, RS4-11, read-out: IC50 in cell proliferation assay, cell line RS4;11) was 388 nM. It also gave an IC50 (Homo sapiens, Rec1, read-out: IC50 in cell proliferation assay, cell line REC-1) of 1390 nM, an IC50 (Homo sapiens, SHP77, read-out: IC50 in cell proliferation assay, cell line SHP-77) of 2470 nM and an IC50 (Homo sapiens, SK-BR-3, read-out: IC50 in cell proliferation assay, cell line SK-BR-3 (ERBB2 amplification)) of 12500 nM. It also gave an IC50 (Homo sapiens, SK-N-AS, read-out: IC50 in cell proliferation assay, cell line SK-N-AS) of 439 nM, an IC50 (Homo sapiens, SK-N-FI, read-out: IC50 in cell proliferation assay, cell line SK-N-FI) of 242 nM and an IC50 (Homo sapiens, SK-N-MC, read-out: IC50 in cell proliferation assay, cell line SK-N-MC) of 242 nM. It also gave an IC50 (Homo sapiens, SK-N-SH, read-out: IC50 in cell proliferation assay, cell line SK-N-SH (ALK p.F1174L)) of 415 nM, an IC50 (Homo sapiens, SNU-5, read-out: IC50 in cell proliferation assay, cell line SNU-5 (MET amplification)) of 466 nM and an IC50 (Homo sapiens, SNU-16, read-out: IC50 in cell proliferation assay, cell line SNU-16 (FGFR2 amplification)) of 1090 nM. It also gave an IC50 (Homo sapiens, SNU-C2B, read-out: IC50 in cell proliferation assay, cell line SNU-C2B (EGFR p.R165Q)) of 352 nM, an IC50 (Homo sapiens, SU-DHL-1, read-out: IC50 in cell proliferation assay, cell line SU-DHL-1 (NPM1-ALK)) of 19 nM and an IC50 (Homo sapiens, SU-DHL-6, read-out: IC50 in cell proliferation assay, cell line SU-DHL-6) of 993 nM. For the same molecule, the IC50 (Homo sapiens, SUP-T1, read-out: IC50 in cell proliferation assay, cell line SUP-T1) was 956 nM, the IC50 (Homo sapiens, SW48, read-out: IC50 in cell proliferation assay, cell line SW48 (EGFR p.G719S)) was 286 nM and the IC50 (Homo sapiens, SW480, read-out: IC50 in cell proliferation assay, cell line SW480) was 1360 nM. For the same molecule, the IC50 (Homo sapiens, SW626, read-out: IC50 in cell proliferation assay, cell line SW626) was 551 nM, the IC50 (Homo sapiens, SW780, read-out: IC50 in cell proliferation assay, cell line SW780 (FGFR3-BAIAP2L1)) was 483 nM and the IC50 (Homo sapiens, SW837, read-out: IC50 in cell proliferation assay, cell line SW837) was 1950 nM. For the same molecule, the IC50 (Homo sapiens, SW872, read-out: IC50 in cell proliferation assay, cell line SW872 (BRAF p.V600E)) was 302 nM, the IC50 (Homo sapiens, SW900, read-out: IC50 in cell proliferation assay, cell line SW900) was 315 nM and the IC50 (Homo sapiens, SW948, read-out: IC50 in cell proliferation assay, cell line SW948) was 789 nM. For the same molecule, the IC50 (Homo sapiens, SW982, read-out: IC50 in cell proliferation assay, cell line SW982 (BRAF p.V600E)) was 323 nM, the IC50 (Homo sapiens, SW-620, read-out: IC50 in cell proliferation assay, cell line SW620) was 527 nM and the IC50 (Homo sapiens, T98G, read-out: IC50 in cell proliferation assay, cell line T98G) was 819 nM. It also gave an IC50 (Homo sapiens, TCC-SUP, read-out: IC50 in cell proliferation assay, cell line TCCSUP) of 326 nM, an IC50 (Homo sapiens, THP-1, read-out: IC50 in cell proliferation assay, cell line THP-1) of 1120 nM and an IC50 (Homo sapiens, U2OS, read-out: IC50 in cell proliferation assay, cell line U2OS) of 224 nM. It also gave an IC50 (Homo sapiens, U-87 MG, read-out: IC50 in cell proliferation assay, cell line U-87MG ATCC) of 2250 nM, an IC50 (Homo sapiens, U-118-MG, read-out: IC50 in cell proliferation assay, cell line U-118MG) of 1330 nM and an IC50 (Homo sapiens, UMUC3, read-out: IC50 in cell proliferation assay, cell line UM-UC-3) of 461 nM. For the same molecule, the IC50 (Hs766T, read-out: IC50 in cell proliferation assay, Hs 766T cell line) was 343 nM, the IC50 (L-82, read-out: IC50 in cell proliferation assay, L-82 cell line (NPM1-ALK)) was 2 nM and the IC50 (Rh30, read-out: IC50 in cell proliferation assay, cell line Rh30) was 355 nM. The IC50 (read-out: IC50 in cell proliferation assay, 11-18 cell line (EGFR p.L858R)) was 580 nM, the IC50 (read-out: IC50 in cell proliferation assay, Hs 852.T cell line) was 193 nM and the IC50 (read-out: IC50 in cell proliferation assay, JAR cell line) was 476 nM. The IC50 (read-out: IC50 in cell proliferation assay, cell line 5637) was 545 nM, the IC50 (read-out: IC50 in cell proliferation assay, cell line A-388) was 1300 nM and the IC50 (read-out: IC50 in cell proliferation assay, cell line DB) was 893 nM. For the same molecule, the IC50 (read-out: IC50 in cell proliferation assay, cell line DEL (NPM1-ALK)) was 2.58 nM, the IC50 (read-out: IC50 in cell proliferation assay, cell line ES-2 (BRAF p.V600E)) was 712 nM and the IC50 (read-out: IC50 in cell proliferation assay, cell line PA-1) was 489 nM. The IC50 (read-out: IC50 in cell proliferation assay, cell line PC-3) was 889 nM, the IC50 (read-out: IC50 in cell proliferation assay, cell line RD) was 290 nM and the IC50 (read-out: IC50 in cell proliferation assay, cell line RKO (BRAF p.V600E)) was 1340 nM. It also gave an IC50 (read-out: IC50 in cell proliferation assay, cell line RL) of 2600 nM, an IC50 (read-out: IC50 in cell proliferation assay, cell line RT-4 (FGFR3-TACC3)) of 1390 nM and an IC50 (read-out: IC50 in cell proliferation assay, cell line SR (NPM1-ALK)) of 22 nM. It also gave an IC50 (read-out: IC50 in cell proliferation assay, cell line T24) of 329 nM, an IC50 (read-out: IC50 in cell proliferation assay, cell line TT (RET p.C634W)) of 178 nM and an IC50 (read-out: IC50 in cell proliferation assay, cell line VA-ES-BJ) of 431 nM.
